Assay results as given in ChEMBL document CHEMBL1124638, “2,4-Diamino-5-benzylpyrimidines and analogues as antibacterial agents. 10. 2,4-Diamino-5-(6-quinolylmethyl)- and -[(tetrahydro-6-quinolyl)methyl]pyrimidine derivatives. Further specificity studies” (J Med Chem, 1989).
Values after ≈ are worked out from the molar mass of the structure shown.

Key:
Klebsiella pneumoniae [1] = test: Comparative in vitro antibacterial activity with trimethoprim against Klebsiella pneumoniae CN3632; format: functional
Streptococcus agalactiae = test: Comparative in vitro antibacterial activity with trimethoprim against Streptococcus agalactiae CN1143; format: functional
[2] = Comparative in vitro antibacterial activity with trimethoprim against Salmonella typhi CN512; format: functional, salmonella typhosa
[3] = tested on: Mycolicibacterium smegmatis; test: Comparative in vitro antibacterial activity with trimethoprim against Mycobacterium smegmatis S 3254; format: functional
Streptococcus pyogenes = test: Comparative in vitro antibacterial activity of compound with trimethoprim against Streptococcus pyogenes CN10; format: functional
Pasteurella multocida = test: Comparative in vitro antibacterial activity with trimethoprim against Pasteurella multocida ATCC 6587; format: functional
Escherichia coli = test: Comparative in vitro antibacterial activity with trimethoprim against Escherichia coli CN314; format: functional
Enterococcus faecalis = test: Comparative in vitro antibacterial activity with trimethoprim against Streptococcus faecalis CN478; format: functional
Vibrio cholerae = test: Comparative in vitro antibacterial activity with trimethoprim against Vibrio cholerae ATCC 14035; format: functional
Staphylococcus aureus = test: Comparative in vitro antibacterial activity with trimethoprim against Staphylococcus aureus CN491; format: functional
Klebsiella aerogenes = test: Comparative in vitro antibacterial activity with trimethoprim against Enterobacter aerogenes 2200/86; format: functional
[4] = tested on: Bordetella bronchiseptica; test: Comparative in vitro antibacterial activity with trimethoprim against Bordetella bronchiseptica CN385; format: functional
Shigella flexneri = test: Comparative in vitro antibacterial activity with trimethoprim against Shigella flexneri CN6007; format: functional
Serratia marcescens = test: Comparative in vitro antibacterial activity with trimethoprim against Serratia marcescens CN2398; format: functional
Citrobacter freundii [5] = test: Comparative in vitro antibacterial activity with trimethoprim against Citrobacter freundii 2200/77; format: functional
Dihydrofolate reductase [6] = biological target: T1, Dihydrofolate reductase (Rattus norvegicus, UniProt Q920D2); test: Inhibitory activity against dihydrofolate reductase in rat liver; conditions: read-out: I50
T1 sequence (Q920D2 whole entry): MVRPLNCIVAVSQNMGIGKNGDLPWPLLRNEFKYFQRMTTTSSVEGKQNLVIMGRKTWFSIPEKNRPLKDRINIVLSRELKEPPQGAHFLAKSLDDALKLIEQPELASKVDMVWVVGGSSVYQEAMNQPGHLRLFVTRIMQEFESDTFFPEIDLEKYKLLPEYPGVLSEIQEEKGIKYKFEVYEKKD

Dihydrofolate reductase [7] = biological target: Dihydrofolate reductase (Neisseria gonorrhoeae, UniProt P04174); test: Inhibitory activity against Dihydrofolate reductase in Neisseria gonorrhoeae; conditions: read-out: I50
Proteus mirabilis = test: Comparative in vitro antibacterial activity with trimethoprim against Proteus mirabilis S2409; format: functional
Proteus vulgaris = test: Comparative in vitro antibacterial activity with trimethoprim against Proteus vulgaris CN329; format: functional
Salmonella typhimurium = test: Comparative in vitro antibacterial activity with trimethoprim against Salmonella Typhimurium S 8587; format: functional, Salmonella enterica subsp. enterica serovar Typhimurium; conditions: Salmonella enterica
[8] = Dissociation constant at 20 degree C; format: physicochemical
Klebsiella pneumoniae [9] = test: Comparative in vitro antibacterial activity of compound with trimethoprim against Klebsiella pneumoniae CN3632; format: functional
Citrobacter freundii [10] = test: Comparative in vitro antibacterial activity of compound with trimethoprim against Citrobacter freundii 2200/77; format: functional

Sequence of Dihydrofolate reductase (Neisseria gonorrhoeae, UniProt P04174) (P04174 whole entry): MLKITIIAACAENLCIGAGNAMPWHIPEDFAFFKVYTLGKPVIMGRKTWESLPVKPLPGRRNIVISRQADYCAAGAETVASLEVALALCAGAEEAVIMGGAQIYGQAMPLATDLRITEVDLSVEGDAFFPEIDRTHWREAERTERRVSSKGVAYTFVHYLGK

COc1cc(Cc2cnc(N)nc2N)cc2c1N(CCO)CCC2C (stereo unspecified)
MIC (Klebsiella pneumoniae [1]): 10 µg/mL (≈ 29.1 µM)
MIC (Streptococcus agalactiae): 1 µg/mL (≈ 2.91 µM)
MIC [2]: 30 µg/mL (≈ 87.4 µM)
MIC [3]: 3 µg/mL (≈ 8.74 µM)
MIC (Streptococcus pyogenes): 3 µg/mL (≈ 8.74 µM)
MIC (Pasteurella multocida): 10 µg/mL (≈ 29.1 µM)
MIC (Escherichia coli): 30 µg/mL (≈ 87.4 µM)
MIC (Enterococcus faecalis): 0.3 µg/mL (≈ 0.874 µM)
MIC (Vibrio cholerae): 3 µg/mL (≈ 8.74 µM)
MIC (Staphylococcus aureus): 1 µg/mL (≈ 2.91 µM)
MIC (Klebsiella aerogenes): 30 µg/mL (≈ 87.4 µM)
MIC [4]: 10 µg/mL (≈ 29.1 µM)
MIC (Shigella flexneri): 10 µg/mL (≈ 29.1 µM)
MIC (Serratia marcescens): 10 µg/mL (≈ 29.1 µM)
MIC (Citrobacter freundii [5]): 3 µg/mL (≈ 8.74 µM)
IC50 (Dihydrofolate reductase [6]): 142 µM
IC50 (Dihydrofolate reductase [7]): 0.61 µM
MIC (Proteus mirabilis): 10 µg/mL (≈ 29.1 µM)
MIC (Proteus vulgaris): 10 µg/mL (≈ 29.1 µM)
MIC (Salmonella typhimurium): 10 µg/mL (≈ 29.1 µM)

COc1cccc2c1N(C)CCC2C (stereo unspecified)
pKa [8]: 6.51

CC1CCNc2ccc(Cc3cnc(N)nc3N)cc21 (stereo unspecified)
MIC (Klebsiella pneumoniae [1]): 30 µg/mL (≈ 111 µM)
MIC (Streptococcus agalactiae): 3 µg/mL (≈ 11.1 µM)
MIC [2]: 10 µg/mL (≈ 37.1 µM)
MIC [3]: 3 µg/mL (≈ 11.1 µM)
MIC (Streptococcus pyogenes): 1 µg/mL (≈ 3.71 µM)
MIC (Pasteurella multocida): 3 µg/mL (≈ 11.1 µM)
MIC (Escherichia coli): 30 µg/mL (≈ 111 µM)
MIC (Enterococcus faecalis): 3 µg/mL (≈ 11.1 µM)
MIC (Vibrio cholerae): 3 µg/mL (≈ 11.1 µM)
MIC (Staphylococcus aureus): 3 µg/mL (≈ 11.1 µM)
MIC (Klebsiella aerogenes): 10 µg/mL (≈ 37.1 µM)
MIC [4]: 10 µg/mL (≈ 37.1 µM)
MIC (Shigella flexneri): 30 µg/mL (≈ 111 µM)
MIC (Serratia marcescens): 10 µg/mL (≈ 37.1 µM)
MIC (Citrobacter freundii [5]): 30 µg/mL (≈ 111 µM)
IC50 (Dihydrofolate reductase [6]): 22 µM
IC50 (Dihydrofolate reductase [7]): 0.4 µM
MIC (Proteus mirabilis): 10 µg/mL (≈ 37.1 µM)
MIC (Proteus vulgaris): 10 µg/mL (≈ 37.1 µM)
MIC (Salmonella typhimurium): 10 µg/mL (≈ 37.1 µM)

CC1CC(C)c2cc(Cc3cnc(N)nc3N)cc(Cl)c2N1 (stereo unspecified)
MIC (Klebsiella pneumoniae [1]): 100 µg/mL (≈ 315 µM)
MIC (Streptococcus agalactiae): 3 µg/mL (≈ 9.44 µM)
MIC [2]: 100 µg/mL (≈ 315 µM)
MIC [3]: 10 µg/mL (≈ 31.5 µM)
MIC (Streptococcus pyogenes): 3 µg/mL (≈ 9.44 µM)
MIC (Pasteurella multocida): 30 µg/mL (≈ 94.4 µM)
MIC (Escherichia coli): 100 µg/mL (≈ 315 µM)
MIC (Enterococcus faecalis): 3 µg/mL (≈ 9.44 µM)
MIC (Vibrio cholerae): 3 µg/mL (≈ 9.44 µM)
MIC (Staphylococcus aureus): 3 µg/mL (≈ 9.44 µM)
MIC (Klebsiella aerogenes): 100 µg/mL (≈ 315 µM)
MIC [4]: 100 µg/mL (≈ 315 µM)
MIC (Shigella flexneri): 300 µg/mL (≈ 944 µM)
MIC (Serratia marcescens): > 10 µg/mL
MIC (Citrobacter freundii [5]): 100 µg/mL (≈ 315 µM)
IC50 (Dihydrofolate reductase [6]): 41 µM
IC50 (Dihydrofolate reductase [7]): 0.24 µM
MIC (Proteus mirabilis): 30 µg/mL (≈ 94.4 µM)
MIC (Proteus vulgaris): 100 µg/mL (≈ 315 µM)
MIC (Salmonella typhimurium): 100 µg/mL (≈ 315 µM)

COCCOc1cc(Cc2cnc(N)nc2N)cc2c1NCCC2
MIC (Streptococcus agalactiae): 10 µg/mL (≈ 30.4 µM)
MIC [2]: 100 µg/mL (≈ 304 µM)
MIC [3]: 3 µg/mL (≈ 9.11 µM)
MIC (Klebsiella pneumoniae [9]): 100 µg/mL (≈ 304 µM)
MIC (Streptococcus pyogenes): 3 µg/mL (≈ 9.11 µM)
MIC (Pasteurella multocida): 30 µg/mL (≈ 91.1 µM)
MIC (Escherichia coli): 100 µg/mL (≈ 304 µM)
MIC (Enterococcus faecalis): 3 µg/mL (≈ 9.11 µM)
MIC (Vibrio cholerae): 10 µg/mL (≈ 30.4 µM)
MIC (Staphylococcus aureus): 10 µg/mL (≈ 30.4 µM)
MIC (Klebsiella aerogenes): 100 µg/mL (≈ 304 µM)
MIC (Citrobacter freundii [10]): 100 µg/mL (≈ 304 µM)
MIC [4]: 30 µg/mL (≈ 91.1 µM)
MIC (Shigella flexneri): 100 µg/mL (≈ 304 µM)
MIC (Serratia marcescens): > 10 µg/mL
IC50 (Dihydrofolate reductase [6]): 170 µM
IC50 (Dihydrofolate reductase [7]): 0.53 µM
MIC (Proteus mirabilis): > 30 µg/mL
MIC (Proteus vulgaris): 100 µg/mL (≈ 304 µM)
MIC (Salmonella typhimurium): 100 µg/mL (≈ 304 µM)
